One data set has as its system Siglec-1. The data set can be described thus: Solid-phase binding to Siglec-1. Details: species or system human. The conditions noted are these: Fig. 2b. On the procedure:
Solid-phase binding assays were performed with streptavidin-, protein A/G-, or Nickel-coated microtiter plates (Pierce). His-tagged or Fc-fusion recombinant receptors (R&D Systems, Minneapolis, MN) were reconstituted in PBS. Sufficient receptors were added to wells to saturate the coating. His-tagged receptors were added to each well at a 5-fold excess over the stated capacity of the Ni coating to minimize non-specific binding of the peptide. Wells were washed three times with binding buffer (25 mM Tris HCl, pH 7.4, 150 mM NaCl, 0.05% Tween-20) to remove unbound receptor and 50 μL of 2 μM biotinylated peptide in binding buffer were added and allowed to incubate for 1 h. The wells were washed four times with binding buffer and then incubated with 50 μL of 1 μg/mL streptavidin conjugated with peroxidase (Sigma-Aldrich) for 1 h. […] After several minutes to allow color development, the reaction was stopped with 50 μL 1 M H3PO4 and absorbance was measured at 450 nm. Bound streptavidin was quantitated by the specific activity of peroxidase (absorbance/ng protein conjugate/min) under the conditions of the assay.
Solid-phase binding assays were performed with recombinant human receptors. […] After extensive washing, the bound receptor was measured by peroxidase conjugated to a receptor-specific antibody. […]

Another data set concerns the target T1, human CLEC10A (Homo sapiens, UniProt Q8IUN9).
T1 construct: purchased R&D Systems
T1 sequence (Q8IUN9 61-316 limits assumed): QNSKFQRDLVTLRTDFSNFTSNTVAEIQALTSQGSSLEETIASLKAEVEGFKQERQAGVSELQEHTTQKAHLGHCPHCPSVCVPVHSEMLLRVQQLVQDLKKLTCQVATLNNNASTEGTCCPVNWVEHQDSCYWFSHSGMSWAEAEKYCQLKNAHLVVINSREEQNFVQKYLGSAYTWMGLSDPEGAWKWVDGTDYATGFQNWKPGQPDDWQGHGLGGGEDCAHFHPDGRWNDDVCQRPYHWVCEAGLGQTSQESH
The data set can be described thus: Solid-phase binding to recombinant human CLEC10A. The conditions noted are these: Fig. 2a, representative of 3 independent experiments. On the procedure: Solid-phase binding assays were performed with streptavidin-, protein A/G-, or Nickel-coated microtiter plates (Pierce). His-tagged or Fc-fusion recombinant receptors (R&D Systems, Minneapolis, MN) were reconstituted in PBS. Sufficient receptors were added to wells to saturate the coating. His-tagged receptors were added to each well at a 5-fold excess over the stated capacity of the Ni coating to minimize non-specific binding of the peptide. Wells were washed three times with binding buffer (25 mM Tris HCl, pH 7.4, 150 mM NaCl, 0.05% Tween-20) to remove unbound receptor and 50 μL of 2 μM biotinylated peptide in binding buffer were added and allowed to incubate for 1 h. The wells were washed four times with binding buffer and then incubated with 50 μL of 1 μg/mL streptavidin conjugated with peroxidase (Sigma-Aldrich) for 1 h. The wells were washed five times with binding buffer and 50 μL of peroxidase substrate (1-Step™ Ultra TMB, Pierce) were added. After several minutes to allow color development, the reaction was stopped with 50 μL 1 M H3PO4 and absorbance was measured at 450 nm. Bound streptavidin was quantitated by the specific activity of peroxidase (absorbance/ng protein conjugate/min) under the conditions of the assay.
Solid-phase binding assays were performed with recombinant human receptors. Three variations of the binding assay were used in this study, all of which allowed the arms of the tetravalent peptide to have full flexibility. (i) Biotinylated peptide was bound in microtiter wells coated with streptavidin and incubated with recombinant human receptors. After extensive washing, the bound receptor was measured by peroxidase conjugated to a receptor-specific antibody. (ii) The extracellular domains of receptors, which were fused with the Fc domain of immunoglobulin IgG, were bound in wells coated with protein A/G. Biotinylated peptide was incubated with the receptors and, after extensive washing, bound peptide was measured with streptavidin conjugated with peroxidase. Or (iii), recombinant receptors with a poly-His tag were bound to Nickel-coated wells and incubated with biotinylated peptide. svL4 and sv6D contain His residues (see Table 1) and can bind to the Ni coating, which was minimized by adding sufficient poly-His-tagged receptor to saturate the Ni coating.

For data set [1], the system named is peritoneal cells of Balb/c mice. The data set can be described thus: Peritoneal immune cell populations by flow cytometry, healthy Balb/c mice. Type of data set: in vivo, mouse (Balb/c). On the procedure:
Healthy C57BL/6 male mice, 10 weeks old, were injected subcutaneously with peptides on alternate days. Peritoneal cells were isolated from mice 24 h after dosing by injecting ice cold PBS (containing 3% FBS) into the peritoneal cavity, gently massaging the abdomen, and then collecting the fluid, which was transferred into K2EDTA-treated tubes for evaluation of specific biomarkers. Cells from three mice in each group were pooled, counted and divided among FACS tubes (1 × 10^6 cells per tube). Cells were washed once in PBS containing 3% FBS, then stained with 0.25 to 1 μg of fluorescently conjugated antibody per 10^6 cells in 100 μL of buffer as recommended by the manufacturer (Table 2).
Cells were incubated with the antibodies for 30 min at 4 °C in the dark. Following staining, the cells were washed two times with PBS/3% FBS and immediately analyzed with a MACSQuant flow cytometer (Miltenyi Biotech, Inc., San Diego, CA). Compensation was performed using single stain tubes for each color present in the analysis as well as an unstained control sample. Collection of flow cytometric data and analysis with FlowJo software, version 10.0.6 (FlowJo, LLC, Ashland, OR) were performed by Biomodels LLC (Watertown, MA).
To examine whether increases occurred in mature immune cells, peritoneal cells from Balb/c and C57BL/6 mice were analyzed by flow cytometry after cells were stained with the markers listed in Table 2. […] To explore this observation more extensively, svL4 or sv6D was injected into C57BL/6 mice on day 0, 2 or 4. Peritoneal cells were examined by flow cytometry 24 h after each injection. Shown in Fig. 5 are results expressed as cell counts for F4/80 CD11b CD86 (mature, active macrophages); CD11c (DCs); CD11c CD 86 (activated DCs); CD4 CD69 (activated T cells); CD8 CD69 (activated cytotoxic T cells); NK1.1 CD3^+ CD69 (activated NKT cells); NK1.1 CD3^− CD69 (activated NK cells); CD19 (B cells); and CD19 CD73 CD80 CD273 (memory B cells). The numbers of these mature, activated cells continued to increase with each injection.
In general terms: A flow cytometer gives signals particle by particle.

Data set [2] is described as follows: Antigenicity assay in mouse sera. It counts as in vivo. The following applies: 1 nmole/g s.c., alternate days for 3 months; sera of 8 treated mice, Fig. 8. On the procedure:
The sequence of one arm of svL4 or sv6D was conjugated to keyhole limpet hemocyanin (KLH) and injected into rabbits at two week intervals (total of 3 injections) (New England Peptide, Inc., Gardner, MA). Two weeks after the final injection, sera were prepared. Mice were injected with a peptide every other day over a period of 3 months (total ~ 45 injections), blood was then collected by cardiac puncture and sera were prepared. Rabbit serum was diluted 1:10, whereas mouse serum was diluted 1:1 or 1:5 with PBS containing 0.05% Tween-20 (PBST). Sera were incubated in microtiter wells coated with protein A/G (Pierce) for 90 min. The wells were washed three times with PBST, and then incubated with 50 μL of 1 μM biotinylated svL4 or sv6D for 1 h. The wells were washed four times with PBST, incubated 1 h with 1 μg/mL streptavidin-peroxidase conjugate, and washed four times with PBST. Peroxidase activity was assayed as above under Binding Assays.
Fig. 8 Test for antigenicity of svL4 and sv6D. Anti-sera were generated in rabbits against KLH-conjugates of the sequences of svL4 or sv6D and diluted 1:10. Mouse sera were collected after alternate-day injections of svL4 over 3 months, diluted 1:1 with PBS and added to protein-A/G-coated wells. Biotinylated svL4 or sv6D was added to wells and bound peptide was detected with a streptavidin-peroxidase conjugate. […]

Bridges are numbered along the chain shown (N, C = ends). Roman numbers before positions name the chains, in order. Where no end group is shown, it is not given here.

With “I: VQATQSNQHTPRGGGSKK-NH2 / II: VQATQSNQHTPRGGGSK / III: VQATQSNQHTPRGGGS / IV: VQATQSNQHTPRGGGS (amide I:17-IV:C, I:18-II:C, II:17-III:C) [svL4]”, the “binding to Siglec-1” value in the data set with Siglec-1 is given as “did not bind significantly”. Further, on human CLEC10A, the “binding to CLEC10A” value was “bound to CLEC10A”. Besides, in data set [1] (1 nmole/g s.c., 24 h after a single injection), the “increases in macrophages, DCs, T cells and NK cells” value was “Several-fold increases”. For the same substance, the “CD90.2^+ fraction of small cells” value in data set [1] (after treatment with svL4) was “about 15%”. For the same substance, the “increase in mature immune cells” value in data set [1] (within 24 h after a single injection (data not shown)) is listed as “approximately 2 fold”. Besides, the “small cells (low FSc, low SSc)” value in data set [1] (within 24 h after injection, healthy Balb/c, Fig. S1b) was “decreased to a minimal level”. Also, the “antibodies that bind the peptides in mouse sera” value in data set [2] was “negative”.

Source of the values: publication PMC5905120, “An innovative immunotherapeutic strategy for ovarian cancer: CLEC10A and glycomimetic peptides” (Journal for Immunotherapy of Cancer, 2018).
